Columns and labels:
Test in all cases: relative viability (nuclei count vs DMSO), 5 days (fraction); higher = more cells survive
[1] = test system: NCI-H358
In short: (§1)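 Lung cancer cell lines, seeded in 1536-well plates, were treated the following day by pin tool with a single drug or with five library-drug doses (not always all listed) in √10 steps on top of a fixed anchor-drug dose. Cells were fixed and nuclei stained in one step after 5 days, and nuclei were counted. Relative viability is the nuclei count for treated wells divided by that for vehicle wells, reported as medians of duplicate plates.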

[2] = test system: NCI-H2085
In short: as §1

[3] = test system: NCI-H650
In short: as §1

[4] = test system: COR-L23
In short: as §1

[5] = test system: NCI-H1993
In short: as §1

[6] = test system: NCI-H1915
In short: as §1

[7] = test system: NCI-H2347
In short: as §1

[8] = test system: EPLC-272H
In short: as §1

[9] = test system: SW 1573
In short: as §1

[10] = test system: PC-14
In short: as §1

[11] = test system: NCI-H1651
In short: as §1

[12] = test system: NCI-H2126
In short: as §1

[13] = test system: LU99A
In short: as §1

[14] = test system: NCI-H838
In short: as §1

[15] = test system: HCC-44
In short: as §1

[16] = test system: HARA
In short: as §1

[17] = test system: HOP-62
In short: as §1

[18] = test system: NCI-H2023
In short: as §1

[19] = test system: LC-2-ad
In short: as §1

[20] = test system: UMC-11
In short: as §1

[21] = test system: NCI-H1355
In short: as §1

[22] = test system: HCC-15
In short: as §1

O=c1cc(-c2cccc3c2Sc2ccccc2S3)oc(N2CCOCC2)c1 + CC(=O)Nc1cccc(-n2c(=O)n(C3CC3)c(=O)c3c(Nc4ccc(I)cc4F)n(C)c(=O)c(C)c32)c1 [Trametinib] (partner 0.02 µM) showed a relative viability ([1]; first compound 0.08 µM) of 0.123, a relative viability ([1]; first compound 0.253 µM) of 0.134 and a relative viability ([1]; first compound 0.8 µM) of 0.123. For the same compound, the relative viability ([1]; first compound 2.53 µM) was 0.111, the relative viability ([1]; first compound 8 µM) was 0.152 and the relative viability ([2]; first compound 0.08 µM) was 0.526. The relative viability ([2]; first compound 0.253 µM) was 0.573, the relative viability ([2]; first compound 0.8 µM) was 0.441 and the relative viability ([2]; first compound 2.53 µM) was 0.401. It also gave a relative viability ([2]; first compound 8 µM) of 0.446, a relative viability ([3]; first compound 0.08 µM) of 0.994 and a relative viability ([3]; first compound 0.253 µM) of 1.03. The relative viability ([3]; first compound 0.8 µM) was 0.959, the relative viability ([3]; first compound 2.53 µM) was 0.901 and the relative viability ([3]; first compound 8 µM) was 0.977. It also gave a relative viability ([4]; first compound 0.08 µM) of 0.593, a relative viability ([4]; first compound 0.253 µM) of 0.689 and a relative viability ([4]; first compound 0.8 µM) of 0.51. For the same compound, the relative viability ([4]; first compound 2.53 µM) was 0.592, the relative viability ([4]; first compound 8 µM) was 0.689 and the relative viability ([5]; first compound 0.08 µM) was 0.462. The relative viability ([5]; first compound 0.253 µM) was 0.64, the relative viability ([5]; first compound 0.8 µM) was 0.46 and the relative viability ([5]; first compound 2.53 µM) was 0.467. For the same compound, the relative viability ([5]; first compound 8 µM) was 0.544, the relative viability ([6]; first compound 0.08 µM) was 0.293 and the relative viability ([6]; first compound 0.253 µM) was 0.312. The relative viability ([6]; first compound 0.8 µM) was 0.32, the relative viability ([6]; first compound 2.53 µM) was 0.285 and the relative viability ([6]; first compound 8 µM) was 0.264. It also gave a relative viability ([7]; first compound 0.08 µM) of 0.283, a relative viability ([7]; first compound 0.253 µM) of 0.266 and a relative viability ([7]; first compound 0.8 µM) of 0.264. The relative viability ([7]; first compound 2.53 µM) was 0.27, the relative viability ([7]; first compound 8 µM) was 0.295 and the relative viability ([8]; first compound 0.08 µM) was 0.254. The relative viability ([8]; first compound 0.253 µM) was 0.293, the relative viability ([8]; first compound 0.8 µM) was 0.238 and the relative viability ([8]; first compound 2.53 µM) was 0.28. For the same compound, the relative viability ([8]; first compound 8 µM) was 0.28, the relative viability ([9]; first compound 0.08 µM) was 0.597 and the relative viability ([9]; first compound 0.253 µM) was 0.691. The relative viability ([9]; first compound 0.8 µM) was 0.575, the relative viability ([9]; first compound 2.53 µM) was 0.574 and the relative viability ([9]; first compound 8 µM) was 0.554. It also gave a relative viability ([10]; first compound 0.08 µM) of 0.748, a relative viability ([10]; first compound 0.253 µM) of 0.828 and a relative viability ([10]; first compound 0.8 µM) of 0.728. The relative viability ([10]; first compound 2.53 µM) was 0.827, the relative viability ([10]; first compound 8 µM) was 0.718 and the relative viability ([11]; first compound 0.08 µM) was 0.906. It also gave a relative viability ([11]; first compound 0.253 µM) of 0.709, a relative viability ([11]; first compound 0.8 µM) of 0.843 and a relative viability ([11]; first compound 2.53 µM) of 0.803. For the same compound, the relative viability ([11]; first compound 8 µM) was 0.832, the relative viability ([12]; first compound 0.08 µM) was 0.583 and the relative viability ([12]; first compound 0.253 µM) was 0.583. It also gave a relative viability ([12]; first compound 0.8 µM) of 0.526, a relative viability ([12]; first compound 2.53 µM) of 0.508 and a relative viability ([12]; first compound 8 µM) of 0.474. The relative viability ([13]; first compound 0.08 µM) was 0.531, the relative viability ([13]; first compound 0.253 µM) was 0.624 and the relative viability ([13]; first compound 0.8 µM) was 0.553. It also gave a relative viability ([13]; first compound 2.53 µM) of 0.538, a relative viability ([13]; first compound 8 µM) of 0.52 and a relative viability ([14]; first compound 0.08 µM) of 0.462. The relative viability ([14]; first compound 0.253 µM) was 0.673, the relative viability ([14]; first compound 0.8 µM) was 0.49 and the relative viability ([14]; first compound 2.53 µM) was 0.502. For the same compound, the relative viability ([14]; first compound 8 µM) was 0.47, the relative viability ([15]; first compound 0.08 µM) was 0.993 and the relative viability ([15]; first compound 0.253 µM) was 1.01. The relative viability ([15]; first compound 0.8 µM) was 0.985, the relative viability ([15]; first compound 2.53 µM) was 1.01 and the relative viability ([15]; first compound 8 µM) was 1.07. For the same compound, the relative viability ([16]; first compound 0.08 µM) was 0.786, the relative viability ([16]; first compound 0.253 µM) was 0.615 and the relative viability ([16]; first compound 0.8 µM) was 0.537. It also gave a relative viability ([16]; first compound 2.53 µM) of 0.668, a relative viability ([16]; first compound 8 µM) of 0.581 and a relative viability ([17]; first compound 0.08 µM) of 0.401. The relative viability ([17]; first compound 0.253 µM) was 0.394, the relative viability ([17]; first compound 0.8 µM) was 0.348 and the relative viability ([17]; first compound 2.53 µM) was 0.319. For the same compound, the relative viability ([17]; first compound 8 µM) was 0.321, the relative viability ([18]; first compound 0.08 µM) was 0.564 and the relative viability ([18]; first compound 0.253 µM) was 0.647. It also gave a relative viability ([18]; first compound 0.8 µM) of 0.6, a relative viability ([18]; first compound 2.53 µM) of 0.534 and a relative viability ([18]; first compound 8 µM) of 0.426. For the same compound, the relative viability ([19]; first compound 0.08 µM) was 0.882, the relative viability ([19]; first compound 0.253 µM) was 0.967 and the relative viability ([19]; first compound 0.8 µM) was 0.93. It also gave a relative viability ([19]; first compound 2.53 µM) of 0.858, a relative viability ([19]; first compound 8 µM) of 0.858 and a relative viability ([20]; first compound 0.08 µM) of 0.719. The relative viability ([20]; first compound 0.253 µM) was 0.827, the relative viability ([20]; first compound 0.8 µM) was 0.78 and the relative viability ([20]; first compound 2.53 µM) was 0.638. For the same compound, the relative viability ([20]; first compound 8 µM) was 1.03, the relative viability ([21]; first compound 0.08 µM) was 0.524 and the relative viability ([21]; first compound 0.253 µM) was 0.468. It also gave a relative viability ([21]; first compound 0.8 µM) of 0.348, a relative viability ([21]; first compound 2.53 µM) of 0.409 and a relative viability ([21]; first compound 8 µM) of 0.352. The relative viability ([22]; first compound 0.08 µM) was 0.362, the relative viability ([22]; first compound 0.253 µM) was 0.454 and the relative viability ([22]; first compound 0.8 µM) was 0.369. For the same compound, the relative viability ([22]; first compound 2.53 µM) was 0.363 and the relative viability ([22]; first compound 8 µM) was 0.38.
